Laboratory results published in patent US6525178B2, “PGC-1, a novel brown fat PPARgamma coactivator” (Dana-Farber Cancer Institute, priority 1997, dated 2003).

What was measured:
[1] = target: T1, PPARγ (Mus musculus, UniProt P37238); experiment: In vitro binding of GST-PGC-1 to in vitro-translated nuclear receptor; conditions: GST-PGC-1 (aa 36-797) on beads
T1 construct: made in house; host or cells: receptor: reticulocyte lysate in vitro translation (Promega TNT); GST-PGC-1: E. coli
T1 sequence (P37238 1-505): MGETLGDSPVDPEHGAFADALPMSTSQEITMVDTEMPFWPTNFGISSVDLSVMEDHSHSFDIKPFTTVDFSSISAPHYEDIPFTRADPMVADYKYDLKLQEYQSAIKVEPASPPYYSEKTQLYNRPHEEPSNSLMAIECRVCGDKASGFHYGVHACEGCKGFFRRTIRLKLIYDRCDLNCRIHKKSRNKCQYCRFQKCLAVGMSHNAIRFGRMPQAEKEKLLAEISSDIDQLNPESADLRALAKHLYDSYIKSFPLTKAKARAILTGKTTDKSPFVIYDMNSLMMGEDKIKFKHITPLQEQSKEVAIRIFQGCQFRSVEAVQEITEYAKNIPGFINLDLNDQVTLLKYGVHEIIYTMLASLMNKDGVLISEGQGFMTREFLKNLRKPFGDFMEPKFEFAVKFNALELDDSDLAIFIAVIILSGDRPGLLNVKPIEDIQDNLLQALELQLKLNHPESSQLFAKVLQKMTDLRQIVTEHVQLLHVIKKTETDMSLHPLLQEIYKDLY
T1 sequence (O70343 36-797 partner limits assumed): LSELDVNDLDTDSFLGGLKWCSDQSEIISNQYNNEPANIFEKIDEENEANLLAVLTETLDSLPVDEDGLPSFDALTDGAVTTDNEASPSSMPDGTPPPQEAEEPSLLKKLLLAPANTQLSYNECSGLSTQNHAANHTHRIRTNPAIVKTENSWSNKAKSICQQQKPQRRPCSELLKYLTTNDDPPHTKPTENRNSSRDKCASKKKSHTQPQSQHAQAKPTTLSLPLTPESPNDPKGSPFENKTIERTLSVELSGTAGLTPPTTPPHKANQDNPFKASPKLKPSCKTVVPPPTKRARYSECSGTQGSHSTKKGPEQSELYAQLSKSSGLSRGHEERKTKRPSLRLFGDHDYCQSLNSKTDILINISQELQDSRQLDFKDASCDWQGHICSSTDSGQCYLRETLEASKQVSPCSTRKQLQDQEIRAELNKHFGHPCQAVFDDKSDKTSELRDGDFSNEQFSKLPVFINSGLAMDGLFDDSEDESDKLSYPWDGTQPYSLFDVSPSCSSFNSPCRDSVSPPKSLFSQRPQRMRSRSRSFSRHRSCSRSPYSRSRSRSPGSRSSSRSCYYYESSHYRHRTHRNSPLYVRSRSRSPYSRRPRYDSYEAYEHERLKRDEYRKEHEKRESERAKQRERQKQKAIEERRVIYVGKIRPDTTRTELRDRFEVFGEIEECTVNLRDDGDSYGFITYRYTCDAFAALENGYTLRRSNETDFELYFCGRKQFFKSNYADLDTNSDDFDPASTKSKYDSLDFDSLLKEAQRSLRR
Description: These fusion proteins were expressed, and purified from E. coli on beads containing approximately 1 μg of protein (either GST, or alone, or fused to PGC-1), 30 μl was resuspended i the binding buffer (20 mM HEPES [pH 7.7], 75 mM KCl, 0.1 mM EDTA, 2.5 mM MgCl2, 0.05% NP40,2 mM DTT, 10% glycerol).
The assays were carried out as follows. […] After electrophoresis, fixation, and enhancement, the radiolabeled proteins were visualized by autoradiography.

[2] = tested on: 3T3-F442A preadipocytes; experiment: Northern analysis of 3T3-F442A cells with retroviral ectopic expression of PGC-1; assay type: cell-based
Text: To examine directly the ability of PGC-1 to regulate the genes of adaptive thermogenesis, retroviral vectors have been used to express this protein in white fat precursor cells, and 3T3-F442A preadipocytes were then stimulated to differentiate. Briefly, the PGC-1 viral expression vector (pBabe-PGC-1) was constructed by ligating the BamHI-Xhol fragment from pBluescript-PGC-1 plasmid into BamHI/Sall sites of pBabe-puro. Following drug selection, virally infected 3T3F442A-PGC-1 and […] cells lines were grown to confluence in DMEM with 10% BCS. Differentiation of these cells was initiated by culturing them in DMEM insulin. Cells were refed every 2 days with this medium. Specific cells were grown in DMEM with 10% CCS to confluence. […] After these treatments, total RNA was isolated and analyzed.
To induce UCP-1 expression, 1 μM 8-bromo-cAMP and […] 9-cis-retinoic acid were added to the medium, and total RNA was extracted from the cells 6 hr later. […] The mitochondrial respiratory enzyme cytochrome c-oxidase subunits COX II and IV are encoded in the mitochondrial and nuclear genome, respectively. Both of these mRNAs increase 2- to 3-fold in the cells ectopically expressing PGC-1. Expression of aP2, a white and brown fat cell gene not linked to thermogenesis, and 36B4, a ribosomal protein are shown as a loading control.

[3] = target: T2, retinoid-X receptor (RXRα) (Homo sapiens, UniProt P19793); experiment: In vitro binding of GST-PGC-1 to in vitro-translated nuclear receptor; conditions: with or without ligand addition
T2 construct: made in house; host or cells: receptor: reticulocyte lysate in vitro translation (Promega TNT); GST-PGC-1: E. coli
T2 sequence (P19793 1-462): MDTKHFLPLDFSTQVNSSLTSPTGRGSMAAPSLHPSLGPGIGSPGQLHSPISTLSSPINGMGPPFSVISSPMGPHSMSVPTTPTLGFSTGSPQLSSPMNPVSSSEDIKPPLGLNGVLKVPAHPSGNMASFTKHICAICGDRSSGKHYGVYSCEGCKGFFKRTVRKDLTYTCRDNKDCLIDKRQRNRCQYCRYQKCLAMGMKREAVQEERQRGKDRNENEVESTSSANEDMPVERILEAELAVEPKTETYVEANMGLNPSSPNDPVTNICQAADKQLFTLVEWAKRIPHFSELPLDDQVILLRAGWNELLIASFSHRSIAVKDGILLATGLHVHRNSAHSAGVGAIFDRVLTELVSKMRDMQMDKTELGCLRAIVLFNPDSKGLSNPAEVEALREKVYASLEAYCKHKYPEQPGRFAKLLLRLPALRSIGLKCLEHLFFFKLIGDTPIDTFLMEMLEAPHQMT
Description: The assays were carried out as follows.

[4] = tested on: 3T3-F442A cells; experiment: Southern blot analysis of mitochondrial DNA in 3T3-F442A cells expressing PGC-1; assay type: cell-based; conditions: cells expressing PGC-1, COX-II cDNA probe
Description: Changes in the cellular content of mitochondrial DNA have been used as a simple biochemical assay for mitochondrial proliferation (Martin et al. (1995) Biochem. J. 308:749-752; Klingenspor et al. (1996) Biochem. J. 316:607-613). To address this possibility, Southern blot analysis of mitochondrial DNA was performed. 3T3-F442A Southern blots were carried out by isolating and processing genomic DNA as described in Maniatis et al. (1989) Molecular Cloning: A Laboratory Manual, 2nd Ed. (Cold Spring Harbor, N.Y.: Cold Spring Harbor Laboratory Press)). 3T3-F442A cells were differentiated as described above. Total cellular DNA was isolated and was digested with NCo I. Ten micrograms of DNA were electrophoresed, and the Southern blot was hybridized using COX-II cDNA as a probe for mitrochondrial DNA.
The same blots were also probed with cDNA for 36B4, a ribosomal protein encoded in the nucleus. The blot was then stripped and hybridized with the nuclear gene […].

In the case of “PGC-1: mouse PPARγ coactivator 1 protein, SEQ ID NO:2; used as GST fusion or expressed from retroviral vector”, the “binding of PGC-1 to PPARγ” value [1] is reported as “interacted with PPARγ”, the “mRNA for ATP synthetase” value ([2]; cells expressing PGC-1 vs control) is reported as “increased” and the “mRNA for UCP-1” value ([2]; cells expressing PGC-1 vs control 3T3-F442A cells, 8-bromo-cAMP and 9-cis-retinoic acid, 6 hr) is reported as “significantly induced”. For the same substance, the “binding of PGC-1 to RXRα” value [3] was “little or no binding” and the “mitochondrial DNA content compared to control cells” value [4] was “twice”.
